Measured values published in US20230131339A1, “EPI-X4 BASED PEPTIDES AND DERIVATIVES THEREOF” (Universitaet Ulm, priority 2020, published 2023).
Where a SMILES comes first, the peptide text is derived from it. Primed or numbered codes have the meaning given here. Where no end group is shown, it is not given here. Side-chain parts run from the residue outwards. [ ]: non-standard residue; d: D form. The star is where a group is joined. Glu″ = glutamate linker (Glu-Pal); Palmitoyl = CCCCCCCCCCCCCCCC(=O)*; Ole = not defined here

How the values were obtained:
[1] = Functional stability assay in human plasma
Protocol: Fourth, the stability of peptides in human plasma and whole human blood was tested (FIG. 4). The functional stability of EPI-X4 (SEQ ID NO.: 1) derivatives was screened using a CXCR4 antibody-based screening approach. Peptides were diluted in full human plasma or blood (>99%) and the functional activity was then measured after either 2 hours or 8 hours and compared to a sample that was not incubated in plasma or blood.
In this test, the peptides were incubated in human plasma for a certain time period.
Stability assay. Whole blood was collected from healthy donors in EDTA tubes and directly used or subsequently centrifuged for 15 min at 2,500×g to obtain plasma. Plasma from 6 donors was pooled and stored in aliquots at −80° C. Compounds were 200-fold diluted in human plasma or whole human blood to reach final concentrations of 20 μM. The t=0 sample was immediately taken and stored at −80° C. Plasma/compound or blood/compound mixture was then transferred to 37° C. and shook at 350 rpm. At given time points samples were taken and stored at −80° C.°. For measuring the functional activity of the plasma/peptide samples, the mixtures were thawed and diluted in ice cold PBS. 12G5-APC antibody competition was then performed as described before. For blood/peptide functional stability, samples were thawed and centrifuged at 14,000 rpm to remove cells and debris. The supernatant was then diluted in PBS and 12G5-antibody competition assay was performed. After the 2 hours incubation, the cells were washed and 50 μl of 1-step-Fix/Lyse solution (Thermo Fisher #00-5333-54) was added for 15 minutes at room temperature. Afterwards cells were washed again and analyzed for bound antibody.

[2] = system: CXCR4-tropic X4-HIV-1 (NL4-3); type: cell-based; settings: for IC50: CXCR4-tropic X4- (NL4-3)
[3] = system: CXCL12-induced AKT signaling; experiment: ERK/AKT signaling assay in SupT1 cells: AKT phosphorylation; type: cell-based; settings: 10 μM
Protocol: Third, the activity of the claimed EPI-X4 derivatives was tested by the effect on CXCL12/CXCR4-mediated ERK (Extracellular-signal Regulated Kinases) and AKT (a serine/threonine-protein kinase) signaling (FIG. 3). In that assay CXCR4 expressing cells are stimulated with the CXCR4 chemokine-ligand CXCL12, which subsequently leads to phosphorylation of ERK and AKT. Preincubation of cells with CXCR4-antagonists blocks those pathways. […] Two or three independent experiments were carried out in triplicates for each peptide in each assay. The error bars refer to the standard deviation.
ERK/AKT signaling assay. CXCL12 induced ERK and AKT phosphorylation was determined in SupT1 cells. For this, 100,000 cells were seeded per well in a 96-V well plate in 100 μl medium supplemented with 1% FCS. Cells were incubated for 2 hours at 37° C. before 5 μl of compounds were added. After 15 min incubation at 37° C. cells were stimulated by adding 5 μl CXCL12 diluted in PBS to reach a final concentration of 100 ng/ml. Cells were further incubated for 2 min before the reaction was stopped by adding 20 μl of 10% PFA. Cells were fixed for 15 min at 4° C. before PFA was removed and cells permeabilized by adding 100 μl ice cold methanol. After 15 min at 4° C. the methanol was removed, cells were washed and 30 μl primary antibody was added (phospho-p44/42 MAPK (Erk1) (Tyr204)/(Erk2) (Tyr187) (D1H6G) mouse mAb #5726; phosphor-Akt (Ser473) (193H12) rabbit mAb #4058 Cell Signaling) for 1 hour at 4° C. After the antibody was removed and cells were washed secondary antibody was added for 30 min. Cells were washed afterwards and subsequently analyzed by flow cytometry.

[4] = biological target: CXC chemokine receptor type 4 (CXCR4) (human, UniProt P61073 1-352); experiment: cell-based or functional assay
CXC chemokine receptor type 4 (CXCR4), sequence (P61073 whole entry): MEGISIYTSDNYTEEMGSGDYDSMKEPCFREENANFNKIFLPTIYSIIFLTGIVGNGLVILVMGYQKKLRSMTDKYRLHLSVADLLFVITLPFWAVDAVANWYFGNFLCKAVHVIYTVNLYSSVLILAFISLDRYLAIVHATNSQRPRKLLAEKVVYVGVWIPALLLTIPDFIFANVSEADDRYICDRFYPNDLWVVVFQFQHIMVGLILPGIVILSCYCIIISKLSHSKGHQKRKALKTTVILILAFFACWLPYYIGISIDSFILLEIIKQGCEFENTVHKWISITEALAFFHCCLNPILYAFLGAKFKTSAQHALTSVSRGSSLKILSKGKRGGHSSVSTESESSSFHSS

SC029: PEG 20 kDa telechelic peptide conjugate, JM #21 copies coupled to different ends of the polymer (ILRWSRKLPCVS; also: PEG 20 kDa conjugate, peptide copies at both polymer ends, site not given here)
remaining (relative) activity after 8 hours of plasma incubation ([1]; human, plasma, 8 h): 38% | anti-HIV-1 activity (in words) [2]: comparable to the state of the art CXCR4-antagonist AMD3100 and JM #21

SC024: PEG-coupled peptide JM #21, average molecular mass 20 kDa (ILRWSRKLPCVS; also: coupled to PEG 20 kDa, site not given here)
remaining (relative) activity after 8 hours of plasma incubation ([1]; human, plasma, 8 h): 30% | anti-HIV-1 activity (in words) [2]: comparable to the state of the art CXCR4-antagonist AMD3100 and JM #21

CSCC[C@H](NC(=O)[C@H](N)CC(C)C)C(=O)N[C@@H](CCCNC(=N)N)C(=O)N[C@@H](Cc1c[nH]c2ccccc12)C(=O)N[C@@H](CO)C(=O)N[C@@H](CCCNC(=N)N)C(=O)N[C@@H](CCCCN)C(=O)N[C@@H](CCSC)C(=O)N1CCC[C@H]1C(=O)N[C@@H](CS)C(=O)N[C@H](C(=O)N[C@@H](CO)C(=O)O)C(C)C [JM #36] (H-[dL]MRWSRKMPCVS-OH; C-terminus assumed)
remaining (relative) activity after 2 hours of plasma incubation ([1]; human plasma): 85% | remaining (relative) activity after 8 hours of plasma incubation ([1]; human plasma, 8 hours): 81%

CC(C)C[C@H](NC(=O)[C@@H](NC(=O)[C@@H]1CCCN1C(=O)[C@@H](NC(=O)[C@H](CO)NC(=O)[C@@H](NC(=O)[C@H](CCC(N)=O)NC(=O)[C@@H]1CCCN1C(=O)[C@@H](NC(=O)[C@H](CCCCN)NC(=O)[C@H](CCCCN)NC(=O)[C@@H](NC(=O)[C@H](Cc1ccc(O)cc1)NC(=O)[C@H](CCCNC(=N)N)NC(=O)[C@@H](NC(=O)[C@@H](N)CC(C)C)C(C)C)[C@@H](C)O)C(C)C)C(C)C)[C@@H](C)O)[C@@H](C)O)C(=O)O [EPI-X4] (H-LVRYTKKVPQVSTPTL-OH; N-terminus and C-terminus assumed)
half-life at 20 μM ([1]; human, plasma): 17 min | reduction of CXCL12-induced AKT signaling [3]: about 40%

c1cc(CN2CCCNCCNCCCNCC2)ccc1CN1CCCNCCNCCCNCC1 [AMD3100, reference compound]
reduction of CXCL12-induced AKT signaling [3]: about 60%

d-MLRWSRKK(Glu-Pal)-NH2 ([dM]LRWSRKK([Glu″-Palmitoyl])-NH2) [JM #197]
anti-HIV-1 activity (in words) [2]: strongly increased anti-HIV-1 activity

CC[C@H](C)[C@H](N)C(=O)N[C@@H](CCSC)C(=O)N[C@@H](CCCNC(=N)N)C(=O)N[C@@H](Cc1c[nH]c2ccccc12)C(=O)N[C@@H](CO)C(=O)N[C@@H](CCCNC(=N)N)C(=O)N[C@@H](CCCCN)C(=O)N[C@@H](CCSC)C(=O)N1CCC[C@H]1C(=O)N[C@@H](CS)C(=O)N[C@H](C(=O)N[C@@H](CO)C(=O)O)C(C)C [JM #17] (H-IMRWSRKMPCVS-OH; C-terminus assumed)
IC50 [2]: < 5 nM

CC[C@H](C)[C@H](N)C(=O)N[C@@H](CC(C)C)C(=O)N[C@@H](CCCNC(=N)N)C(=O)N[C@@H](Cc1c[nH]c2ccccc12)C(=O)N[C@@H](CO)C(=O)N[C@@H](CCCNC(=N)N)C(=O)N[C@@H](CCCCN)C(=O)N[C@@H](Cc1ccccc1)C(=O)N1CCC[C@H]1C(=O)N[C@@H](CS)C(=O)N[C@H](C(=O)N[C@@H](CO)C(=O)O)C(C)C [JM #22] (H-ILRWSRKFPCVS-OH; C-terminus assumed)
IC50 [2]: < 5 nM

CC[C@H](C)[C@H](N)C(=O)N[C@@H](CC(C)C)C(=O)N[C@@H](CCCNC(=N)N)C(=O)N[C@@H](Cc1c[nH]c2ccccc12)C(=O)N[C@@H](CO)C(=O)N[C@@H](CCCNC(=N)N)C(=O)N[C@@H](CCCCN)C(=O)N[C@@H](CCSC)C(=O)N1CCC[C@H]1C(=O)N[C@@H](CS)C(=O)N[C@H](C(=O)N[C@@H](CO)C(=O)O)C(C)C [JM #13] (H-ILRWSRKMPCVS-OH; C-terminus assumed)
IC50 [2]: < 5 nM

d-MLRWSRK(Glu-Pal)-NH2 ([dM]LRWSRK([Glu″-Palmitoyl])-NH2) [JM #196]
anti-HIV-1 activity (in words) [2]: strongly increased anti-HIV-1 activity

CC[C@H](C)[C@H](N)C(=O)N[C@@H](CC(C)C)C(=O)N[C@@H](CCCNC(=N)N)C(=O)N[C@@H](Cc1c[nH]c2ccccc12)C(=O)N[C@@H](CO)C(=O)N[C@@H](CCCNC(=N)N)C(=O)N[C@@H](CCCCN)C(=O)N[C@@H](CCSC)C(=O)N1CCC[C@H]1C(=O)N[C@@H](CS)C(=O)N[C@@H](CCSC)C(=O)N[C@@H](CO)C(=O)O [JM #20] (H-ILRWSRKMPCMS-OH; C-terminus assumed)
IC50 [2]: < 5 nM

CC[C@@H](C)[C@@H](N)C(=O)N[C@@H](CC(C)C)C(=O)N[C@@H](CCCNC(=N)N)C(=O)N[C@@H](Cc1c[nH]c2ccccc12)C(=O)N[C@@H](CO)C(=O)N[C@@H](CCCNC(=N)N)C(=O)N[C@@H](CCCCN)C(=O)N[C@@H](CC(C)C)C(=O)N1CCC[C@H]1C(N)=O [JM #174] (H-[dI]LRWSRKLP-NH2)
remaining (relative) activity after 8 hours of plasma incubation ([1]; human plasma, 8 hours): 100%

CC[C@H](C)[C@H](N)C(=O)N[C@@H](CC(C)C)C(=O)N[C@@H](CCCNC(=N)N)C(=O)N[C@@H](Cc1c[nH]c2ccccc12)C(=O)N[C@@H](CO)C(=O)N[C@@H](CCCNC(=N)N)C(=O)N[C@@H](CCCCN)C(=O)N[C@@H](CCSC)C(=O)N1CCC[C@H]1C(=O)N[C@@H](CS)C(=O)N[C@@H](Cc1ccccc1)C(=O)N[C@@H](CO)C(=O)O [JM #19] (H-ILRWSRKMPCFS-OH; C-terminus assumed)
IC50 [2]: 5 to 10 nM

CSCC[C@@H](N)C(=O)N[C@@H](CC(C)C)C(=O)N[C@@H](CCCNC(=N)N)C(=O)N[C@@H](Cc1c[nH]c2ccccc12)C(=O)N[C@@H](CO)C(=O)N[C@@H](CCCNC(=N)N)C(=O)N[C@@H](CCCCN)C(=O)N[C@@H](CCSC)C(=O)N1CCC[C@H]1C(=O)N[C@@H](CS)C(=O)N[C@H](C(=O)N[C@@H](CO)C(=O)O)C(C)C [JM #28] (H-[dM]LRWSRKMPCVS-OH; C-terminus assumed)
remaining (relative) activity after 2 hours of plasma incubation ([1]; human plasma): 96% | remaining (relative) activity after 8 hours of plasma incubation ([1]; human plasma, 8 hours): 77% | IC50 [2]: 246 nM

SC033: PEG-coupled peptide JM #21, average molecular mass 5 kDa (ILRWSRKLPCVS; also: PEG-coupled, average 5 kDa, attachment site not given here)
remaining (relative) activity after 8 hours of plasma incubation ([1]; human, plasma, 8 h): 72% | anti-HIV-1 activity (in words) [2]: comparable to the state of the art CXCR4-antagonist AMD3100 and JM #21

d-LMRWSRKK(Glu-Pal)-NH2 ([dL]MRWSRKK([Glu″-Palmitoyl])-NH2) [JM #195]
anti-HIV-1 activity (in words) [2]: strongly increased anti-HIV-1 activity

[dL]LRWSRK-NH2 (not fully specified (residue 7)) [JM#235]
IC50, HIV inhibition assay [4]: 5 to 10 nM

[dI]LRWSRK-NH2 (not fully specified (residue 7)) [JM#238]
IC50, HIV inhibition assay [4]: 5 to 10 nM

B1: JM#180 (peptide)
peptide: [dL]MRWSRK(Palmitoyl)-NH2
modifications: N-terminus assumed
SMILES: CCCCCCCCCCCCCCCC(=O)NCCCC[C@H](NC(=O)[C@H](CCCNC(=N)N)NC(=O)[C@H](CO)NC(=O)[C@H](Cc1c[nH]c2ccccc12)NC(=O)[C@H](CCCNC(=N)N)NC(=O)[C@H](CCSC)NC(=O)[C@H](N)CC(C)C)C(N)=O
IC50, HIV inhibition assay [4]: 5 to 10 nM

ILRWSRKLPCVS (not fully specified (residue 7)) [JM#213]
IC50, HIV inhibition assay [4]: 5 to 10 nM

ILRWSRK(Ole)LPCVS (reading uncertain) [JM#183]
IC50, HIV inhibition assay [4]: 5 to 10 nM

[dL]LRWSRK-NH2 (not fully specified (residue 7)) [JM#257]
IC50, HIV inhibition assay [4]: 5 to 10 nM
